Results reported in patent publication US20260000692A1, “Substituted N-(Pyridin-2-yl)Acetamide Derivatives as CDK12/13 Inhibitors” (Aurigene Oncology Limited, priority 2022, published 2026).

Target: CDK12 (Homo sapiens, UniProt Q9NYV4)
Test: Biochemical assay for CDK12 (LANCE TR-FRET, IC50 determination)
Settings: for IC50: CDK12, IC50 class, read-out: IC50 μM (in range); for inhibition at 10 µM: compound at 10 μM, read-out: CDK12 % Inhibition @ 10 μM
Outline: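 30 nM CDK12 phosphorylated 100 nM ULight-4E-BP1 (Thr37/Thr46) peptide at 100 µM ATP, as printed, in HEPES pH 7.5 buffer with MgCl2 and DTT. Compound and enzyme were preincubated 60 min, then reacted 60 min at room temperature before stopping with EDTA and Eu anti-phospho antibody. TR-FRET 665/615 ratio gave sigmoidal IC50 fits.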

CDK12, sequence (Q9NYV4 whole entry): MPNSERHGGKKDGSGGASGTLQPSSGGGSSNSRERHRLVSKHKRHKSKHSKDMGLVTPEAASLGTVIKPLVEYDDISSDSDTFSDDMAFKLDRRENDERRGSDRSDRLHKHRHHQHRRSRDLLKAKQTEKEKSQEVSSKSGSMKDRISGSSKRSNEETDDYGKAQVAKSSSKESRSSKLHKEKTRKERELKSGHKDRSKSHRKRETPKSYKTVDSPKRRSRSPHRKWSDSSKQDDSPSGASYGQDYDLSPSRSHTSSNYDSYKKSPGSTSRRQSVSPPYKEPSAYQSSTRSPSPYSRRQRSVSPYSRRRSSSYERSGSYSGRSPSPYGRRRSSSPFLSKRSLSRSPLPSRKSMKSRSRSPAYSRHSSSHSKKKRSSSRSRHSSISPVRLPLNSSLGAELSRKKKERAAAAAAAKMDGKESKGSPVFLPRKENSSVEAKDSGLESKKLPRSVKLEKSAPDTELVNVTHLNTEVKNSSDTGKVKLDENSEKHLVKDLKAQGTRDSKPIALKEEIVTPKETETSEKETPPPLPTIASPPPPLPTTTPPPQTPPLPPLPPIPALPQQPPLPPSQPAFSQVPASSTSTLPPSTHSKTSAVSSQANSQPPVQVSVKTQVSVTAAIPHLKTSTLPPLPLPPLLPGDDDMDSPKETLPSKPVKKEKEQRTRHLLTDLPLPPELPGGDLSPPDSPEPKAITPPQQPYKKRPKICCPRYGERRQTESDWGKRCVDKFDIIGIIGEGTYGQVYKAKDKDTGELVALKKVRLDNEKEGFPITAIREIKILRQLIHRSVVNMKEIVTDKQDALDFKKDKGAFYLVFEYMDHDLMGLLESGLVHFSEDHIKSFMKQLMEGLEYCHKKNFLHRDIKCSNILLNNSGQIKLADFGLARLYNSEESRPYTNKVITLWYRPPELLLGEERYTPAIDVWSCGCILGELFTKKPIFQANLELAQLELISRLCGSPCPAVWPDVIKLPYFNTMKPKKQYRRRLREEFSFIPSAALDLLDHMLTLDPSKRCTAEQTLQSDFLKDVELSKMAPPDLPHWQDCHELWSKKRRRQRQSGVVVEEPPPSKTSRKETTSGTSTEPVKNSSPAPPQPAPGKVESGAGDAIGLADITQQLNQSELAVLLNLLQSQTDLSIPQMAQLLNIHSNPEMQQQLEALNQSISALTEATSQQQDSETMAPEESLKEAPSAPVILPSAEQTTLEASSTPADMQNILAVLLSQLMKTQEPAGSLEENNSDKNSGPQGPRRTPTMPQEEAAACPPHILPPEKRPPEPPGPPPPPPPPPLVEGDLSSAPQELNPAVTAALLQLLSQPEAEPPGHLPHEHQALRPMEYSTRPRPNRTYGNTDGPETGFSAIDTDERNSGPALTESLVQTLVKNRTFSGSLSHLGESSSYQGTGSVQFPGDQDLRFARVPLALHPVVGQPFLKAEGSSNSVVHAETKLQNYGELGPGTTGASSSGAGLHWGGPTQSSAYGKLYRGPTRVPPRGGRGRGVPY
CDK12, sequence (O75909 whole entry partner): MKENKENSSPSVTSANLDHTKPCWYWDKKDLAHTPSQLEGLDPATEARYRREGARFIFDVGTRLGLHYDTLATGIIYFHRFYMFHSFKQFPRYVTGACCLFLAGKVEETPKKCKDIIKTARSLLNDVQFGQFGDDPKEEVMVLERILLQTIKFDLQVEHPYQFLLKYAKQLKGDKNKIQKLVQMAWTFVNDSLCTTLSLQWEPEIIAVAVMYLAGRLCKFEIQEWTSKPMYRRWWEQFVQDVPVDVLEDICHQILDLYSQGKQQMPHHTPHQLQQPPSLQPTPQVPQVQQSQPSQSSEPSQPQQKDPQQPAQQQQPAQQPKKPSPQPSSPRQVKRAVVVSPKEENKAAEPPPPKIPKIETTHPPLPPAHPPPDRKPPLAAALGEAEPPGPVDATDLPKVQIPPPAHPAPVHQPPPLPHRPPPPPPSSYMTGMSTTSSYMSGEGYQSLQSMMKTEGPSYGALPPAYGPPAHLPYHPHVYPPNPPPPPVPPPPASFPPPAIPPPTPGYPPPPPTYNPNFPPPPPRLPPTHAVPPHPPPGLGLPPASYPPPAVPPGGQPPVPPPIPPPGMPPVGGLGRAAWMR

Structure (SMILES) | IC50 [µM] | inhibition at 10 µM [%]
N#CN1CCC=C(c2ccc(CC(=O)Nc3cc(Cl)c(Cl)cn3)cn2)C1 [Compound 105, 2-(1′-cyano-1′,2′,5′,6′-tetrahydro-[2,3′-bipyridin]-5-yl)-N-(4,5-dichloropyridin-2-yl)acetamide] | < 0.01 | 100
COc1cc(NC(=O)Cc2ccc(-c3ccc(CNC#N)nc3)nc2)ncc1Cl [Compound 130, N-(5-chloro-4-methoxypyridin-2-yl)-2-(6′-(cyanamidomethyl)-[2,3′-bipyridin]-5-yl)acetamide] | 0.01 to 0.1 | 95
